In patent US20150148235A1, “HERBICIDE-RESISTANT SUNFLOWER PLANTS WITH MULTIPLE HERBICIDE RESISTANT ALLELES OF AHASL1 AND METHODS OF USE” (NIDERA S.A., priority 2013, published 2015):

System: sunflower hybrids and lines (A122T, A205V, A205V/A122T)
Test: Field trial North Dakota 2006, phytotoxicity ratings after imazamox or imazapyr, Example 3
Format: in vivo, Helianthus annuus
Conditions: for phytotoxicity: 200 g ai/ha
Procedure: • Spray volume: 10 gallons per acre (GPA) (or 100 liters/ha) for backpack sprayer or 20 GPA (or 200 liters/ha) for tractor mounted boom • Growth Stage at Herbicide Application: 2-4 leaves
Entry 15 (WT Maintainer line) was left unsprayed in all treatment blocks.
Phytotoxicity ratings were assessed at 7 and 21 days following herbicide application.
The data was subjected to an ANOVA analysis and the means from the 3 repetitions are presented in Table 7 (phytotoxicity at 7 days post-treatment) and Table 8 (phytotoxicity at 21 days post-treatment).

COCc1cnc(C2=NC(C)(C(C)C)C(=O)N2)c(C(=O)O)c1 (stereo not drawn) [imazamox]
31.7%: Phytotoxicity Rating (% Crop Injury) (16-hybrid (WT × GM40 restorer, A122 hetero), 200 g ai/ha + 0.25% NIS, 21 DAT)
6.7%: Phytotoxicity Rating (% Crop Injury) (14-hybrid (GM40 CMS × GM40 restorer, A122 homo), 100 g ai/ha + 0.25% NIS, 7 DAT) | Phytotoxicity Rating (% Crop Injury) (15-hybrid (WT × GM40 restorer, A122 hetero), 50 g ai/ha + 0.25% NIS, 21 DAT) | Phytotoxicity Rating (% Crop Injury) (16-hybrid (WT × GM40 restorer, A122 hetero), 50 g ai/ha + 0.25% NIS, 21 DAT)
3-5%: phytotoxicity (homozygous A122T/A122T lines, 21 DAT)
15-22%: phytotoxicity (homozygous A205V/A205V lines, 21 DAT)
5.0%: Phytotoxicity Rating (% Crop Injury) (13-hybrid (GM40 CMS × GM40 restorer, A122 homo), 100 g ai/ha + 0.25% NIS, 7 DAT) | Phytotoxicity Rating (% Crop Injury) (14-hybrid (GM40 CMS × GM40 restorer, A122 homo), 50 g ai/ha + 0.25% NIS, 7 DAT) | Phytotoxicity Rating (% Crop Injury) (14-hybrid (GM40 CMS × GM40 restorer, A122 homo), 200 g ai/ha + 0.25% NIS, 21 DAT)
16.7%: Phytotoxicity Rating (% Crop Injury) (15-hybrid (WT × GM40 restorer, A122 hetero), 200 g ai/ha + 0.25% NIS, 7 DAT) | Phytotoxicity Rating (% Crop Injury) (16-hybrid (WT × GM40 restorer, A122 hetero), 100 g ai/ha + 0.25% NIS, 21 DAT)
0.0%: Phytotoxicity Rating (% Crop Injury) (9-line (GM40 restorer, A122 homo), 100 g ai/ha + 0.25% NIS, 21 DAT) | Phytotoxicity Rating (% Crop Injury) (10-hybrid (IMI CMS × GM40 restorer, A205/A122 hetero/double), 50 g ai/ha + 0.25% NIS, 21 DAT) | Phytotoxicity Rating (% Crop Injury) (10-hybrid (IMI CMS × GM40 restorer, A205/A122 hetero/double), 100 g ai/ha + 0.25% NIS, 21 DAT) | Phytotoxicity Rating (% Crop Injury) (11-hybrid (GM40 CMS × IMI restorer, A205/A122 hetero/double), 50 g ai/ha + 0.25% NIS, 7 DAT) | Phytotoxicity Rating (% Crop Injury) (11-hybrid (GM40 CMS × IMI restorer, A205/A122 hetero/double), 50 g ai/ha + 0.25% NIS, 21 DAT) | Phytotoxicity Rating (% Crop Injury) (11-hybrid (GM40 CMS × IMI restorer, A205/A122 hetero/double), 100 g ai/ha + 0.25% NIS, 21 DAT) | Phytotoxicity Rating (% Crop Injury) (13-hybrid (GM40 CMS × GM40 restorer, A122 homo), 50 g ai/ha + 0.25% NIS, 21 DAT) | Phytotoxicity Rating (% Crop Injury) (14-hybrid (GM40 CMS × GM40 restorer, A122 homo), 50 g ai/ha + 0.25% NIS, 21 DAT)
15.0%: Phytotoxicity Rating (% Crop Injury) (16-hybrid (WT × GM40 restorer, A122 hetero), 100 g ai/ha + 0.25% NIS, 7 DAT)
30.0%: Phytotoxicity Rating (% Crop Injury) (15-hybrid (WT × GM40 restorer, A122 hetero), 200 g ai/ha + 0.25% NIS, 21 DAT)
23.3%: Phytotoxicity Rating (% Crop Injury) (16-hybrid (WT × GM40 restorer, A122 hetero), 200 g ai/ha + 0.25% NIS, 7 DAT)
3.3%: Phytotoxicity Rating (% Crop Injury) (9-line (GM40 restorer, A122 homo), 200 g ai/ha + 0.25% NIS, 21 DAT) | Phytotoxicity Rating (% Crop Injury) (10-hybrid (IMI CMS × GM40 restorer, A205/A122 hetero/double), 50 g ai/ha + 0.25% NIS, 7 DAT) | Phytotoxicity Rating (% Crop Injury) (10-hybrid (IMI CMS × GM40 restorer, A205/A122 hetero/double), 100 g ai/ha + 0.25% NIS, 7 DAT) | Phytotoxicity Rating (% Crop Injury) (11-hybrid (GM40 CMS × IMI restorer, A205/A122 hetero/double), 100 g ai/ha + 0.25% NIS, 7 DAT) | Phytotoxicity Rating (% Crop Injury) (11-hybrid (GM40 CMS × IMI restorer, A205/A122 hetero/double), 200 g ai/ha + 0.25% NIS, 21 DAT) | Phytotoxicity Rating (% Crop Injury) (12-hybrid (IMI CMS × GM40 restorer, A205/A122 hetero/double), 50 g ai/ha + 0.25% NIS, 21 DAT) | Phytotoxicity Rating (% Crop Injury) (12-hybrid (IMI CMS × GM40 restorer, A205/A122 hetero/double), 100 g ai/ha + 0.25% NIS, 21 DAT) | Phytotoxicity Rating (% Crop Injury) (12-hybrid (IMI CMS × GM40 restorer, A205/A122 hetero/double), 200 g ai/ha + 0.25% NIS, 21 DAT) | Phytotoxicity Rating (% Crop Injury) (13-hybrid (GM40 CMS × GM40 restorer, A122 homo), 50 g ai/ha + 0.25% NIS, 7 DAT) | Phytotoxicity Rating (% Crop Injury) (13-hybrid (GM40 CMS × GM40 restorer, A122 homo), 200 g ai/ha + 0.25% NIS, 21 DAT) | Phytotoxicity Rating (% Crop Injury) (14-hybrid (GM40 CMS × GM40 restorer, A122 homo), 100 g ai/ha + 0.25% NIS, 21 DAT)
2-3%: phytotoxicity (heterozygous A205V/A122T lines, 21 DAT)
10.0%: Phytotoxicity Rating (% Crop Injury) (9-line (GM40 restorer, A122 homo), 200 g ai/ha + 0.25% NIS, 7 DAT) | Phytotoxicity Rating (% Crop Injury) (10-hybrid (IMI CMS × GM40 restorer, A205/A122 hetero/double), 200 g ai/ha + 0.25% NIS, 7 DAT) | Phytotoxicity Rating (% Crop Injury) (12-hybrid (IMI CMS × GM40 restorer, A205/A122 hetero/double), 50 g ai/ha + 0.25% NIS, 7 DAT) | Phytotoxicity Rating (% Crop Injury) (12-hybrid (IMI CMS × GM40 restorer, A205/A122 hetero/double), 100 g ai/ha + 0.25% NIS, 7 DAT) | Phytotoxicity Rating (% Crop Injury) (13-hybrid (GM40 CMS × GM40 restorer, A122 homo), 200 g ai/ha + 0.25% NIS, 7 DAT) | Phytotoxicity Rating (% Crop Injury) (15-hybrid (WT × GM40 restorer, A122 hetero), 50 g ai/ha + 0.25% NIS, 7 DAT) | Phytotoxicity Rating (% Crop Injury) (16-hybrid (WT × GM40 restorer, A122 hetero), 50 g ai/ha + 0.25% NIS, 7 DAT)
11.7%: Phytotoxicity Rating (% Crop Injury) (11-hybrid (GM40 CMS × IMI restorer, A205/A122 hetero/double), 200 g ai/ha + 0.25% NIS, 7 DAT) | Phytotoxicity Rating (% Crop Injury) (12-hybrid (IMI CMS × GM40 restorer, A205/A122 hetero/double), 200 g ai/ha + 0.25% NIS, 7 DAT) | Phytotoxicity Rating (% Crop Injury) (14-hybrid (GM40 CMS × GM40 restorer, A122 homo), 200 g ai/ha + 0.25% NIS, 7 DAT) | Phytotoxicity Rating (% Crop Injury) (15-hybrid (WT × GM40 restorer, A122 hetero), 100 g ai/ha + 0.25% NIS, 7 DAT) | Phytotoxicity Rating (% Crop Injury) (15-hybrid (WT × GM40 restorer, A122 hetero), 100 g ai/ha + 0.25% NIS, 21 DAT)
1.7%: Phytotoxicity Rating (% Crop Injury) (10-hybrid (IMI CMS × GM40 restorer, A205/A122 hetero/double), 200 g ai/ha + 0.25% NIS, 21 DAT) | Phytotoxicity Rating (% Crop Injury) (13-hybrid (GM40 CMS × GM40 restorer, A122 homo), 100 g ai/ha + 0.25% NIS, 21 DAT)
